Measured values from patent publication US9273077B2, “Phosphorus derivatives as kinase inhibitors” (ARIAD Pharmaceuticals, Inc., priority 2008, dated 2016).

Target: T1, ALK (Homo sapiens, UniProt Q9UM73)
T1 construct: Kinases are expressed as either kinase domains or full length constructs fused to glutathione S-transferase (GST) or polyHistidine tagged fusion proteins; made in house; host or cells: E. coli or Baculovirus-High Five (not specified which for ALK)
Experiment: inhibitory potency against ALK (kinase inhibition assay)
Assay type: biochemical
Source text: More specifically, the compounds described herein are screened for kinase inhibition activity as follows. Kinases suitable for use in the following protocol include, but are not limited to: ALK, Jak2, b-Raf, c-Met, Tie-2, FLT3, Abl, Lck, Lyn, Src, Fyn, Syk, Zap-70, Itk, Tec, Btk, EGFR, ErbB2, Kdr, FLT1, Tek, InsR, and AKT.
Kinases are expressed as either kinase domains or full length constructs fused to glutathione S-transferase (GST) or polyHistidine tagged fusion proteins in either E. coli or Baculovirus-High Five expression systems. They are purified to near homogeneity by affinity chromatography as previously described (Lehr et al., 1996; Gish et al., 1995). In some instances, kinases are co-expressed or mixed with purified or partially purified regulatory polypeptides prior to measurement of activity.
Kinase activity and inhibition can be measured by established protocols (see e.g., Braunwalder et al., 1996). In such cases, the transfer of ^33PO4 from ATP to the synthetic substrates poly(Glu, Tyr) 4:1 or poly(Arg, Ser) 3:1 attached to the bioactive surface of microtiter plates is taken as a measure of enzyme activity. After an incubation period, the amount of phosphate transferred is measured by first washing the plate with 0.5% phosphoric acid, adding liquid scintillant, and then counting in a liquid scintillation detector. The IC50 is determined by the concentration of compound that causes a 50% reduction in the amount of ^33P incorporated onto the substrate bound to the plate.
For example, in one method, compounds can be tested for their ability to inhibit kinase activity of baculovirus-expressed ALK using a modification of the ELISA protocol reported for trkA in Angeles, T. S. et al., Anal. Biochem. 1996, 236, 49-55, which is incorporated herein by reference. Phosphorylation of the substrate, phopholipase C-gamma (PLC- ? ) generated as a fusion protein with glutathione-S-transferase (GST) as reported in rotin, D. et al., EMBO J. 1992, 11, 559-567, which is incorporated by reference, can be detected with europium-labeled anti-phosphotyrosine antibody and measured by time-resolved fluorescence (TRF). […] Detection of the phosphorylated product can be performed by adding 100 ? L/well of Eu-N1 labeled PT66 antibody (Perkim Elmer #AD0041). Incubation at 37 degrees C. then proceeds for one hour, followed by addition of 100 ? L enhancement solution (for example Wallac #1244-105). The plate is gently agitated and after thirty minutes, the fluorescence of the resulting solution can be measured (for example using EnVision 2100 (or 2102) multilabel plate reader from Perkin Elmer).
Data analysis can then be performed. IC50 values can be calculated by plotting percent inhibition versus log10 of concentration of compound.
The inhibition of ALK tyrosine kinase activity can also be measured using the recombinant kinase domain of the ALK in analogy to VEDG-R kinase assay described in J. Wood et al., Cancer Res 2000, 60, 2178-2189. In vitro enzyme assays using GST-ALK protein tyrosine kinase can be performed in 96-well plate as a filter binding assay in 20 mMTris.HCl, pH 7.5, 3 mM MgCl2, 10 mM MnCl2, […], 0.1 ? Ci/assay (=30 ? L) [ ? -^33P]-ATP, 2 ? M ATP, 3 ? g/mL poly (Glu, tyr 4:1) Poly-EY (sigma P-0275), 1% DMSO, 25 ng ALK enzyme. Assays can be incubated for 10 min, at ambient temperature. Reactions can be terminated by adding 50 ? L of 125 mM EDTA, and the reaction mixture can be transferred onto a MAIP Multiscreen plate (Millipore, Bedford, Mass.) previously wet with methanol, and rehydrated for 5 minutes with water. Following washing (0.5% H3PO4), plates can be counted in a liquid scintillation counter. IC50 values are calculated by linear regression analysis of the percentage inhibition.

T1 sequence (Q9UM73 19-1620): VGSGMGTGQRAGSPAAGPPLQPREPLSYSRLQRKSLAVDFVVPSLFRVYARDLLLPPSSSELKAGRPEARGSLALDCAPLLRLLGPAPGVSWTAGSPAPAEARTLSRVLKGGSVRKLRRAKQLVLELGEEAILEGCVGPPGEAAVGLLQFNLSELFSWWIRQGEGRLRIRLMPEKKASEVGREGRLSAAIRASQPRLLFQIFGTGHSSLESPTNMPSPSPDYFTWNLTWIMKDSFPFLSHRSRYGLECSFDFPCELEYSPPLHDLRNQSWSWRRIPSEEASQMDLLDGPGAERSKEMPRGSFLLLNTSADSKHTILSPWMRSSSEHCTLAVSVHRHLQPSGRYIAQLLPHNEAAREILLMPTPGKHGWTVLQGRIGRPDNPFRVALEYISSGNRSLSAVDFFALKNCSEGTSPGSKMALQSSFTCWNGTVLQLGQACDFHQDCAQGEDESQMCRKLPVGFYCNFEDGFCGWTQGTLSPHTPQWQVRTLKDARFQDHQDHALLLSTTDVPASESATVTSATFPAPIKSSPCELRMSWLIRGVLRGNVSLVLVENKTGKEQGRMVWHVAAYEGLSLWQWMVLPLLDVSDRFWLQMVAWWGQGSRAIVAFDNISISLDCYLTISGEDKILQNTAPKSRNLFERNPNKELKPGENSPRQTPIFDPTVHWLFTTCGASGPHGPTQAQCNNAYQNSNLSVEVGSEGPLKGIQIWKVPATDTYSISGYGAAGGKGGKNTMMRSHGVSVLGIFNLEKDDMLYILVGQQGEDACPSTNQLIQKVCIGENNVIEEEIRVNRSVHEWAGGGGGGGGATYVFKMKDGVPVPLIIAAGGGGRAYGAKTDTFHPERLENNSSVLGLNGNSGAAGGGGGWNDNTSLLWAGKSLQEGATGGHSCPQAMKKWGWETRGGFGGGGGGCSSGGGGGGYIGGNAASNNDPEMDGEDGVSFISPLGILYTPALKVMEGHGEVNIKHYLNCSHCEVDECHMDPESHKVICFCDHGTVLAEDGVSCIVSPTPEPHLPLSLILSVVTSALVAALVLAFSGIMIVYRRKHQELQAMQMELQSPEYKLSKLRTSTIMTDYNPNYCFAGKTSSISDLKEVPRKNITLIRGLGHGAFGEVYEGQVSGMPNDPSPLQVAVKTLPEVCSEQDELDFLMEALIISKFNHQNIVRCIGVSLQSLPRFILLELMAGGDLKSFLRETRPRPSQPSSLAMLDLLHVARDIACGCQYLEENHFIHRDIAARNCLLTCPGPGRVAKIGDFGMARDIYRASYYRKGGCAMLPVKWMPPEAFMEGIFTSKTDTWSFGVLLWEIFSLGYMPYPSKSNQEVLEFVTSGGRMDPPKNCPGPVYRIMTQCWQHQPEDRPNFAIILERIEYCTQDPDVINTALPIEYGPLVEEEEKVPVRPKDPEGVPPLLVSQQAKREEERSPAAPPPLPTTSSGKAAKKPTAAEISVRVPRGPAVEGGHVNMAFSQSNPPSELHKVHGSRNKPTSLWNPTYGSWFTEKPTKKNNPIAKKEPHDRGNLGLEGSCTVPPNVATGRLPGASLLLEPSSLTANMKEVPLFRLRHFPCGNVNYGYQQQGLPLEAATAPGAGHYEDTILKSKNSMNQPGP

| Structure (SMILES) | IC50 [nM] |
| --- | --- |
| CC(C)S(=O)(=O)c1ccccc1Nc1nc(Nc2ccc(P(C)(C)=O)cc2)ncc1Cl [Example 18, 5-chloro-N^2-[4-(dimethylphosphoryl)phenyl]-N^4-[2-(propan-2-ylsulfonyl)phenyl]pyrimidine-2,4-diamine] | 2 to 10 |
| COc1cc(P(C)(C)=O)ccc1Nc1ncc(N)c(Nc2ccccc2S(=O)(=O)C(C)C)n1 [Example 28, N^2-[4-(dimethylphosphoryl)-2-methoxyphenyl]-N^4-[2-(propan-2-ylsulfonyl)phenyl]pyrimidine-2,4,5-triamine] | > 10 |
| CP(C)(=O)c1ccc(Nc2ncc(C(F)(F)F)c(NCC34CC5CC(CC(C5)C3)C4)n2)cc1 [Example 12, N^2-[4-(dimethylphosphoryl)phenyl]-N′-(tricyclo[3.3.1.1^3,7]dec-1-ylmethyl)-5-(trifluoromethyl)pyrimidine-2,4-diamine] | > 10 |
| CCc1cc(P(C)(C)=O)ccc1Nc1ncc(Cl)c(Nc2ccccc2S(=O)(=O)C(C)C)n1 [Example 24, 5-Chloro-N^2-[4-(dimethylphosphoryl)-2-ethylphenyl]-N^4-[2-(propan-2-ylsulfonyl)phenyl]pyrimidine-2,4-diamine] | < 2 |
